Laboratory results taken from patent US12551532B2, “Long-acting amylin receptor agonists and uses thereof” (Eli Lilly and Company, priority 2021, dated 2026).
Starred links: 1 amine or outer side, 2 acyl side, 3 side chain; linkers in the order of their positions; H or OH if unused. Positions of bridges follow the written chain, without caps; N, C: chain ends. Non-standard residues stand in square brackets, D forms with d. Residues, ends and D or L forms follow the SMILES beside them. Groups on a side chain read outwards from the residue. *: point of attachment. C20 diacid = O=C(O)CCCCCCCCCCCCCCCCCCC(=O)*; γGlu = O=C(O)[C@H](CCC(=O)[*:2])N[*:1]; αMeF = C[C@](N)(Cc1ccccc1)C(=O)O; NMeD = CN[C@@H](CC(=O)O)C(=O)O; αMeL = CC(C)C[C@](C)(N)C(=O)O; Orn = NCCC[C@H](N)C(=O)O; AEEA = NCCOCCOCC(=O)O; CH2 = C([*:1])[*:2]

How the values were obtained:
[1] = target: T1, hAMY1R (Homo sapiens, UniProt O60894+P30988); test: hAMY1R cAMP functional activity (HTRF); format: cell-based; conditions: ±SE; UMUC3 cells overexpressing hAMY1R; relative EC50
T1 construct: expressed in transfected cells
Protocol: (§1) The AMY1 and CT receptors are GPCRs that are functionally coupled to Gas proteins. […] In vitro activity of peptides is measured by the amount of cAMP formed in human AMY1R and CTR overexpressed cells.
Human AMY1R stable cell lines are generated by further transfecting human RAMP1-pCMVpuroPB (T14213) into UMUC3 hCTR clone cells. After selection, the mRNA levels human RAMP1 from different clones are measured to confirm the expression of human AMY1R.
(§2) hAMY1R cells are cultured in MEM 1× (Corning) supplemented with 10% FBS, 1% antibiotic/antimycotic solution, 1 mM sodium pyruvate, 1×MEM NEAA, 1× GlutaMAX-I, 200 μg/mL hygromycin B, and 0.4 μg/mL puromycin. The hCTR cells are cultured in the same medium lacking the puromycin. Cultured cells are grown to 70% confluency and then incubated overnight with fresh medium.
(§3) Peptides diluted in DMSO are added (200 nL/well) in a 1:3 dilution series using ECHO acoustic liquid handler (Beckman). Cultured cells are detached with TrypLE Express (Gibco), resuspended in assay buffer, and 10 μL containing 1200 cells/well (hCTR) or 1500 cells/well (hAMY1R) are dispensed into each well. The plates are incubated at room temperature for 1 hour.
(§4) The amount of intracellular cAMP is quantitated using HTRF technology (Homogeneous Time Resolved Fluorescence; Cisbio) as per vendor instructions. Briefly, 10 μL cAMP-d2 conjugate and 10 μL anti-cAMP-cryptate conjugate in lysis buffer are incubated with the treated cells at room temperature for 60 min. […] The raw data are converted to cAMP amount (pmol/well) using a cAMP standard curve generated for each experiment.

[2] = target: T2, human CT receptors (Homo sapiens, UniProt P30988); test: hCTR cAMP functional activity (HTRF); format: cell-based; conditions: ±SE; UMUC3 cells overexpressing hCTR; relative EC50
T2 construct: expressed in transfected cells
T2 sequence (P30988 25-474): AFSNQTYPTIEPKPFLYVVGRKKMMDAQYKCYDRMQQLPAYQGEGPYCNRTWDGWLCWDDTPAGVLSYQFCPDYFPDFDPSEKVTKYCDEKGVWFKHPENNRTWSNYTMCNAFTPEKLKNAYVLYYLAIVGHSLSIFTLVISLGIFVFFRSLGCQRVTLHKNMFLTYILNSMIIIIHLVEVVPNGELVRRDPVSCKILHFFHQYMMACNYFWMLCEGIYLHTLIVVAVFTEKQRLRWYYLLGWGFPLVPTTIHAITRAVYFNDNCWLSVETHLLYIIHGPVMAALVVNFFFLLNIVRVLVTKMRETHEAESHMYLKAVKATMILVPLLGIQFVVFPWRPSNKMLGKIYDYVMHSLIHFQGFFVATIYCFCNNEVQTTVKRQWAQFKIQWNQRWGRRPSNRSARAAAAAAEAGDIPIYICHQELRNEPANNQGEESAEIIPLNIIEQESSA
Protocol: as §1
Human CT receptors are stably expressed in human urinary bladder cells (UM-UC-3, or UMUC3) under control of a pcDNA expression vector. […] After 20 days under selection, the mRNA levels from different clones are measured to confirm the expression of hCTR. To determine the function of over-expressed hCTR cells, the intracellular cAMP levels in response to salmon calcitonin are measured and compared to the expression of hCTR mRNA in each clone.
as §2, §3, §4

T1 sequence (O60894 27-148 partner, one chain of several): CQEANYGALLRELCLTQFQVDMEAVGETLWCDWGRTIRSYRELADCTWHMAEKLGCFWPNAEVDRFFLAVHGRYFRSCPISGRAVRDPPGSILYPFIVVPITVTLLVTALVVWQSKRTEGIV

| Compound | EC50 [1] [nM] | EC50 [2] [nM] |
| --- | --- | --- |
| CC(C)C[C@H](NC(=O)[C@H](CCCCN)NC(=O)CNC(=O)[C@@H](NC(=O)[C@H](C)NC(=O)[C@@H]1CSCSC[C@H](NC(=O)CC[C@H](N)C(=O)O)C(=O)N[C@@H](CC(N)=O)C(=O)N[C@@H]([C@@H](C)O)C(=O)N[C@@H](C)C(=O)N[C@@H]([C@@H](C)O)C(=O)N1)[C@@H](C)O)C(=O)N[C@@H](C)C(=O)N[C@@H](CCC(=O)O)C(=O)N[C@@H](Cc1ccccc1)C(=O)N[C@@H](CC(C)C)C(=O)N[C@H](C(=O)N[C@@H](CCCNC(=N)N)C(=O)N[C@@H](CO)C(=O)N[C@@H](CO)C(=O)N[C@@H](CC(N)=O)C(=O)N[C@@H](CC(N)=O)C(=O)N[C@@H](Cc1ccccc1)C(=O)NCC(=O)N1CCC[C@H]1C(=O)N[C@@H](CCCCNC(=O)CC[C@H](NC(=O)CC[C@H](NC(=O)COCCOCCNC(=O)CCCCCCCCCCCCCCCCCCC(=O)O)C(=O)O)C(=O)O)C(=O)N[C@@H](CC(C)C)C(=O)N1CCC[C@H]1C(=O)N1CCC[C@H]1C(=O)N[C@H](C(=O)N[C@@H](CCC(=O)O)C(=O)N[C@H](C(=O)NCC(=O)N[C@@H](CO)C(=O)N[C@@H](CC(N)=O)C(=O)N[C@H](C(=O)N[C@@H](Cc1ccc(O)cc1)C(N)=O)[C@@H](C)O)C(C)C)[C@@H](C)O)C(C)C [Compound XI] (γGlu-CNTATCATGKLAEFLVRSSNNFGPK([γGlu-γGlu-AEEA-C20 diacid])LPPTEVGSNTY-NH2; linker 1-6 via CH2) | 0.038 ± 0.0078 | 10.5 ± 2.2 |
| CC(C)C[C@H](NC(=O)[C@H](CCCN)NC(=O)CNC(=O)[C@@H](NC(=O)[C@H](C)NC(=O)[C@@H]1CSCSC[C@H](NC(=O)CC[C@H](N)C(=O)O)C(=O)N[C@@H](CC(N)=O)C(=O)N[C@@H]([C@@H](C)O)C(=O)N[C@@H](C)C(=O)N[C@@H]([C@@H](C)O)C(=O)N1)[C@@H](C)O)C(=O)N[C@@H](C)C(=O)N[C@@H](CCC(=O)O)C(=O)N[C@@](C)(Cc1ccccc1)C(=O)N[C@@H](CC(C)C)C(=O)N[C@H](C(=O)N[C@@H](CCCNC(=N)N)C(=O)N[C@@H](CO)C(=O)N[C@@H](CO)C(=O)N[C@@H](CC(N)=O)C(=O)N(C)[C@@H](CC(=O)O)C(=O)N[C@@H](Cc1ccccc1)C(=O)NCC(=O)N1CCC[C@H]1C(=O)N[C@@H](CCCCN)C(=O)N[C@@H](CC(C)C)C(=O)N1CCC[C@H]1C(=O)N1CCC[C@H]1C(=O)N[C@H](C(=O)N[C@@H](CCC(=O)O)C(=O)N[C@H](C(=O)NCC(=O)N[C@@H](CO)C(=O)N[C@@H](CC(N)=O)C(=O)N[C@H](C(=O)N[C@@H](Cc1ccc(O)cc1)C(N)=O)[C@@H](C)O)C(C)C)[C@@H](C)O)C(C)C [Compound III, γE-CNTATCATG-Orn-LAE-αMeF-LVRSSN-NMeD-FGPKLPPTEVGSNTY-NH2] (γGlu-CNTATCATG[Orn]LAE[αMeF]LVRSSN[NMeD]FGPKLPPTEVGSNTY-NH2; linker 1-6 via CH2) | 0.156 ± 0.027 | 16.3 ± 3.03 |
| CC[C@H](C)[C@H](NC(=O)[C@@H]1CCCN1C(=O)CNC(=O)[C@H](Cc1ccccc1)NC(=O)[C@H](CC(N)=O)NC(=O)[C@H](Cc1c[nH]cn1)NC(=O)[C@H](CO)NC(=O)[C@H](CO)NC(=O)[C@H](CCCNC(=N)N)NC(=O)[C@@H](NC(=O)[C@H](CC(C)C)NC(=O)[C@H](Cc1ccccc1)NC(=O)[C@H](CCC(=O)O)NC(=O)[C@H](C)NC(=O)[C@](C)(CC(C)C)NC(=O)[C@H](CCCN)NC(=O)CNC(=O)[C@@H](NC(=O)[C@H](C)NC(=O)[C@@H]1CSCSC[C@H](NC(=O)[C@@H](N)CCCCN)C(=O)N[C@@H](CCC(=O)O)C(=O)N[C@@H]([C@@H](C)O)C(=O)N[C@@H](C)C(=O)N[C@@H]([C@@H](C)O)C(=O)N1)[C@@H](C)O)C(C)C)C(=O)N[C@@H](CC(C)C)C(=O)N1CCC[C@H]1C(=O)N1CCC[C@H]1C(=O)N[C@H](C(=O)N[C@@H](CCC(=O)O)C(=O)N[C@H](C(=O)NCC(=O)N[C@@H](CO)C(=O)N[C@@H](CC(N)=O)C(=O)N[C@H](C(=O)N[C@@H](Cc1ccc(O)cc1)C(N)=O)[C@@H](C)O)C(C)C)[C@@H](C)O [Compound VII] (H-KCETATCATG[Orn][αMeL]AEFLVRSSHNFGPILPPTEVGSNTY-NH2; linker 2-7 via CH2) | 0.173 ± 0.034 | 11.9 ± 1.53 |
| CC(C)C[C@H](NC(=O)[C@H](CCCCN)NC(=O)CNC(=O)[C@@H](NC(=O)[C@H](C)NC(=O)[C@@H]1CSCSC[C@H](NC(=O)CC[C@H](N)C(=O)O)C(=O)N[C@@H](CC(N)=O)C(=O)N[C@@H]([C@@H](C)O)C(=O)N[C@@H](C)C(=O)N[C@@H]([C@@H](C)O)C(=O)N1)[C@@H](C)O)C(=O)N[C@@H](C)C(=O)N[C@@H](CCC(=O)O)C(=O)N[C@@H](Cc1ccccc1)C(=O)N[C@@H](CC(C)C)C(=O)N[C@H](C(=O)N[C@@H](CCCNC(=N)N)C(=O)N[C@@H](CO)C(=O)N[C@@H](CO)C(=O)N[C@@H](CC(N)=O)C(=O)N[C@@H](CC(N)=O)C(=O)N[C@@H](Cc1ccccc1)C(=O)NCC(=O)N1CCC[C@H]1C(=O)N[C@@H](CCCCNC(=O)COCCOCCNC(=O)COCCOCCNC(=O)CC[C@H](NC(=O)CCCCCCCCCCCCCCCCCCC(=O)O)C(=O)O)C(=O)N[C@@H](CC(C)C)C(=O)N1CCC[C@H]1C(=O)N1CCC[C@H]1C(=O)N[C@H](C(=O)N[C@@H](CCC(=O)O)C(=O)N[C@H](C(=O)NCC(=O)N[C@@H](CO)C(=O)N[C@@H](CC(N)=O)C(=O)N[C@H](C(=O)N[C@@H](Cc1ccc(O)cc1)C(N)=O)[C@@H](C)O)C(C)C)[C@@H](C)O)C(C)C [Compound IX] (γGlu-CNTATCATGKLAEFLVRSSNNFGPK([AEEA-AEEA-γGlu-C20 diacid])LPPTEVGSNTY-NH2; linker 1-6 via CH2) | 0.132 ± 0.02 | 18.9 ± 3.83 |
| CC(C)C[C@H](NC(=O)[C@H](CCCCN)NC(=O)CNC(=O)[C@@H](NC(=O)[C@H](C)NC(=O)[C@@H]1CSCSC[C@H](NC(=O)CC[C@H](N)C(=O)O)C(=O)N[C@@H](CC(N)=O)C(=O)N[C@@H]([C@@H](C)O)C(=O)N[C@@H](C)C(=O)N[C@@H]([C@@H](C)O)C(=O)N1)[C@@H](C)O)C(=O)N[C@@H](C)C(=O)N[C@@H](CCC(=O)O)C(=O)N[C@@H](Cc1ccccc1)C(=O)N[C@@H](CC(C)C)C(=O)N[C@H](C(=O)N[C@@H](CCCNC(=N)N)C(=O)N[C@@H](CO)C(=O)N[C@@H](CO)C(=O)N[C@@H](CC(N)=O)C(=O)N[C@@H](CC(N)=O)C(=O)N[C@@H](Cc1ccccc1)C(=O)NCC(=O)N1CCC[C@H]1C(=O)N[C@@H](CCCCNC(=O)CC[C@H](NC(=O)COCCOCCNC(=O)COCCOCCNC(=O)CCCCCCCCCCCCCCCCCCC(=O)O)C(=O)O)C(=O)N[C@@H](CC(C)C)C(=O)N1CCC[C@H]1C(=O)N1CCC[C@H]1C(=O)N[C@H](C(=O)N[C@@H](CCC(=O)O)C(=O)N[C@H](C(=O)NCC(=O)N[C@@H](CO)C(=O)N[C@@H](CC(N)=O)C(=O)N[C@H](C(=O)N[C@@H](Cc1ccc(O)cc1)C(N)=O)[C@@H](C)O)C(C)C)[C@@H](C)O)C(C)C [Compound X] (γGlu-CNTATCATGKLAEFLVRSSNNFGPK([γGlu-AEEA-AEEA-C20 diacid])LPPTEVGSNTY-NH2; linker 1-6 via CH2) | 0.08 ± 0.013 | 14 ± 3.32 |
| CC(C)C[C@H](NC(=O)[C@H](CCCN)NC(=O)CNC(=O)[C@@H](NC(=O)[C@H](C)NC(=O)[C@@H]1CSCSC[C@H](NC(=O)CC[C@H](N)C(=O)O)C(=O)NCC(=O)N[C@@H]([C@@H](C)O)C(=O)N[C@@H](C)C(=O)N[C@@H]([C@@H](C)O)C(=O)N1)[C@@H](C)O)C(=O)N[C@@H](C)C(=O)N[C@@H](CCC(=O)O)C(=O)N[C@@H](Cc1ccccc1)C(=O)N[C@@H](CC(C)C)C(=O)N[C@H](C(=O)N[C@@H](CCCNC(=N)N)C(=O)N[C@@H](CO)C(=O)N[C@@H](CO)C(=O)N[C@@H](CC(N)=O)C(=O)N[C@@H](CC(N)=O)C(=O)N[C@@H](Cc1ccccc1)C(=O)NCC(=O)N1CCC[C@H]1C(=O)N[C@@H](CCCCNC(=O)CC[C@H](NC(=O)CC[C@H](NC(=O)CCCCCCCCCCCCCCCCCCC(=O)O)C(=O)O)C(=O)O)C(=O)N[C@@H](CC(C)C)C(=O)N1CCC[C@H]1C(=O)N1CCC[C@H]1C(=O)N[C@H](C(=O)N[C@@H](CCC(=O)O)C(=O)N[C@H](C(=O)NCC(=O)N[C@@H](CO)C(=O)N[C@@H](CC(N)=O)C(=O)N[C@H](C(=O)N[C@@H](Cc1ccc(O)cc1)C(N)=O)[C@@H](C)O)C(C)C)[C@@H](C)O)C(C)C [Compound XIII] (γGlu-CGTATCATG[Orn]LAEFLVRSSNNFGPK([γGlu-γGlu-C20 diacid])LPPTEVGSNTY-NH2; linker 1-6 via CH2) | 0.078 ± 0.014 | 9.49 ± 1.54 |
